# Reference: patent US12486287B2, “Solid forms of a promoter of spinogenesis” (Spinogenix, Inc., priority 2019, dated 2025)
# Experiments:
# [1] = Solid state stability evaluation (XRPD, PLM, HPLC purity after storage); assay type: physicochemical; details: for Purity (Area %): HPLC; for Form Change: XRPD
# Procedure: Agilent 1260 HPLC with VWD detector was utilized and detailed chromatographic conditions for purity analysis are listed ill Table 1-4.
# The solid state stability of Compound I was evaluated under conditions of 30° C./65% RH (open dish and closed container) and 40° C./75% RH (open dish and closed container) for 4 weeks. The detailed procedures utilized for stability evaluation are listed: 1) Weighed about 10 mg of Compound I starting material into 3-mL glass vials; 2) For the open dish conditions, covered the vials with Parafilm® and poked 6 holes. For the closed conditions, sealed the vials with caps and kept the vials in the corresponding conditions, respectively; For the condition of 40° C./75% RH, placed the vials in the stability chamber of 40° C./75% RH; For the condition of 30° C./65% RH, placed the vials in the airtight atmosphere generated by saturated aqueous potassium iodide solution in 30° C. bio-chemical; 4) Samples taken for XRPD, PLM, and HPLC purity after 3 days, 1 week, 2 weeks and 4 weeks.
# Solid state stability evaluation of Compound I Form I starting material was performed under conditions of 30° C./65% RH (closed and open) and 40° C./75% RH (closed and open). X-ray powder diffraction (XRPD), polarizing microscope (PLM) and HPLC purity were characterized at 4 sampling points (3 days, 1 week, 2 weeks, 4 weeks).
# For the single crystal structure determination, 83 single crystal growth experiments were performed by different methods including slow evaporation, liquid vapor diffusion, slow cooling, heating-cooling and solvent-thermal synthesis. The stability evaluation experiments in 40° C./75% RH condition were performed using stability chamber, while the 30° C./65% RH condition was set up by saturated aqueous potassium iodide solution in 30° C. bio-chemical incubator.
# [2] = Dynamic vapor sorption (DVS); assay type: physicochemical
# Procedure: DVS was measured via a SMS (Surface Measurement Systems) DVS Intrinsic. The relative humidity at 25° C. were calibrated against deliquescence point of LiCl, Mg(NO3)2 and KCl.
# Compound I starting material was the delivered sample. The starting material was characterized by XRPD, thermo-gravimetric analysis (TGA), differential scanning calorimetry (DSC), PLM and dynamic vapor sorption (DVS).
# [3] = 30° C./65% RH, closed container, 1 week
# [4] = 30° C./65% RH, closed container, 2 weeks
# [5] = 30° C./65% RH, closed container, 4 weeks
# [6] = 30° C./65% RH, closed container, 3 days
# [7] = 30° C./65% RH, open dish, 1 week
# [8] = 30° C./65% RH, open dish, 2 weeks
# [9] = 30° C./65% RH, open dish, 4 weeks
# [10] = 30° C./65% RH, open dish, 3 days
# [11] = 40° C./75% RH, closed container, 1 week
# [12] = 40° C./75% RH, closed container, 2 weeks
# [13] = 40° C./75% RH, closed container, 4 weeks
# [14] = 40° C./75% RH, closed container, 3 days
# [15] = 40° C./75% RH, open dish, 1 week
# [16] = 40° C./75% RH, open dish, 2 weeks
# [17] = 40° C./75% RH, open dish, 4 weeks
# [18] = 40° C./75% RH, open dish, 3 days
compound,measurement,setting,value
"OCCOCCOCCOCCOc1ccc(-c2nc3ccccc3s2)cc1 [Compound I Form I, 2-(2-(2-(2-(4-(benzo[d]thiazol-2-yl)phenoxy)ethoxy)ethoxy)ethoxy)ethan-1-ol]",HPLC purity decrease after storage,"[1]; 30° C./65% RH and 40° C./75% RH, open and closed, 4 weeks",No form change and significant HPLC purity decrease were observed
same,Form change after storage (XRPD),"[1]; 30° C./65% RH and 40° C./75% RH, open and closed, up to 4 weeks",No form change
same,Purity/Initial (%),[1]; [3],100.0%
same,Purity (Area %),[1]; [3],99.66 Area %
same,Form Change,[1]; [3],No
same,Purity/Initial (%),[1]; [4],100.0%
same,Purity (Area %),[1]; [4],99.64 Area %
same,Form Change,[1]; [4],No
same,Purity/Initial (%),[1]; [5],100.0%
same,Purity (Area %),[1]; [5],99.66 Area %
same,Form Change,[1]; [5],No
same,Purity/Initial (%),[1]; [6],100.0%
same,Purity (Area %),[1]; [6],99.68 Area %
same,Form Change,[1]; [6],No
same,Purity/Initial (%),[1]; [7],100.0%
same,Purity (Area %),[1]; [7],99.66 Area %
same,Form Change,[1]; [7],No
same,Purity/Initial (%),[1]; [8],100.0%
same,Purity (Area %),[1]; [8],99.63 Area %
same,Form Change,[1]; [8],No
same,Purity/Initial (%),[1]; [9],100.0%
same,Purity (Area %),[1]; [9],99.66 Area %
same,Form Change,[1]; [9],No
same,Purity/Initial (%),[1]; [10],100.0%
same,Purity (Area %),[1]; [10],99.69 Area %
same,Form Change,[1]; [10],No
same,Purity/Initial (%),[1]; [11],100.0%
same,Purity (Area %),[1]; [11],99.66 Area %
same,Form Change,[1]; [11],No
same,Purity/Initial (%),[1]; [12],99.8%
same,Purity (Area %),[1]; [12],99.45 Area %
same,Form Change,[1]; [12],No
same,Purity/Initial (%),[1]; [13],100.0%
same,Purity (Area %),[1]; [13],99.65 Area %
same,Form Change,[1]; [13],No
same,Purity/Initial (%),[1]; [14],100.1%
same,Purity (Area %),[1]; [14],99.76 Area %
same,Form Change,[1]; [14],No
same,Purity/Initial (%),[1]; [15],100.0%
same,Purity (Area %),[1]; [15],99.66 Area %
same,Form Change,[1]; [15],No
same,Purity/Initial (%),[1]; [16],100.0%
same,Purity (Area %),[1]; [16],99.63 Area %
same,Form Change,[1]; [16],No
same,Purity/Initial (%),[1]; [17],100.0%
same,Purity (Area %),[1]; [17],99.65 Area %
same,Form Change,[1]; [17],No
same,Purity/Initial (%),[1]; [18],99.9%
same,Purity (Area %),[1]; [18],99.61 Area %
same,Form Change,[1]; [18],No
same,Form change after DVS test (XRPD),"[2]; 25° C., 0% RH-95% RH-0% RH",No form change was observed
same,Water uptake (DVS),[2]; 25° C./80% RH,0.64%
same,Water uptake (DVS),[2]; 25° C./95% RH,21.43%
